Measured values: US9439986B2, “Tricarbonyl technetium-99m, rhenium-185/187, or rhenium-188 labeled cyclic RGD derivatives and uses thereof” (BIO IMAGING KOREA CO., LTD., priority 2010, dated 2016)

Tests used:
tumor = test system: tumor
Procedure: The small-animal SPECT/CT was used to acquire static imaging of the mice for 60 minutes after the injection. The imaging protocol consisted of repetition of emission and transmission as follows: [10 min emission+transmission]×6 times

integrin αvβ3 = conditions: cRGDyV 18 mg/Kg tail vein 10 minutes before; at 25 minutes post-injection; compared to images of FIG. 6
Procedure: Upon injection, SPECT/CT images were acquired under following conditions:
The animal models were anesthetized with 2% isofluorane gas for the duration of image acquisition time, and the tumor size of the animal models was 0.4 cc. CT images were taken under condition of 45 v, 178 μA for 4 min and 30 sec., and acquired at 10 minute intervals for total 9 times (i.e., for 90 minutes after the injection).

subcutaneous tumor = test: Tumor growth suppression and treatment performance of rhenium-188 labeled derivative in tumor model mice (I); assay type: in vivo
Procedure: Treatment effect experiment was conducted to investigate the ability of tricarbonyl rhenium-188 labeled cyclic RGD derivative to suppress tumor growth.
The rhenium-188 labeled cyclic RGD derivative of Example 5 was injected once in a week, for four weeks. The models to determine treatment effect were divided into small radioactive injection group (300 μCi) and large radioactive injection group (600 μCi), and at the same time, a control group injected with sterilized saline and a comparative group injected with 100 μg of cyclic RGD (cRGDyV) intraperitoneally everyday, were also set. The compound of Example 11 and the sterilized saline were administered through tail veins. The CT images was taken once a week, to visually measure the growth and size of the subcutaneous tumor. The tumor was actually measured three times a week using Vernier Calipers, and the weights of the animal models were also consistently measured three times a week for total 4 weeks.

[1] = 100 μg cyclic RGD (cRGDyV) intraperitoneally everyday, initial tumor size 0.7 cc
[2] = 600 μCi once a week for four weeks
[3] = 600 μCi once a week, 0.3 cc at initial measurement

“(tricarbonyl [^188Re]rhenium-N-α-bis-hydroxycarbonyl methyl-aspartic acid)-[cyclic(lysine-alginine-glycine-aspartic acid-D-phenylalanine)]2 [Example 12]” was tested, and the “CD31 blood vessel staining of tumor tissue slice” value (tumor; 600 μCi/200 μL) was “no clear vessels were observed”, the “integrin αvβ3 distribution in tumor tissue slice using Q-dot RGD derivatives” value (tumor; 600 μCi/200 μL) was “most integrin was damaged” and the “reduction of uptake rate in tumor (SPECT with the compound of Example 15) versus non-administered model” value (tumor; 600 μCi/200 μL, SPECT after three days) was 59%. For the same substance, the “distribution of blood vessels around the tumor (photographs of removed tumors)” value (tumor; 600 μCi/200 μL, versus non-administered model) was “noticeably less distribution of ambient blood vessels”.
“(tricarbonyl-[^99mTc]technetium-N-α-bis-hydroxycarbonyl methyl-aspartic acid)-[cyclic (lysine-alginine-glycine-aspartic acid-D-phenylalanine)]2 [Example 15]” was tested, and the “reduction of absorption in tumor after administration of cyclic RGD (cRGDyV)” value (integrin αvβ3) was at least 94%.
cRGDyV [cyclic RGD] was tested, and the “rate of tumor growth compared with sterilized saline group” value (subcutaneous tumor; 100 μg cyclic RGD (cRGDyV) intraperitoneally everyday) was “no meaningful difference”, the “weight of animals after treatment” value (subcutaneous tumor; 100 μg cyclic RGD (cRGDyV) intraperitoneally everyday, initial measurement 23 g) was 30 g and the “tumor size at 2 week” value (subcutaneous tumor; [1]) was 3.9 cc. For the same substance, the “tumor size at 3 week” value (subcutaneous tumor; [1]) was 8.0 cc and the “tumor size at last week of treatment” value (subcutaneous tumor; [1]) was 12.9 cc.
With “cyclic{(tricarbonyl-[^185/187Re]rhenium-N-α-bis-hydroxycarbonyl methyl-alginine-glycine-aspartic acid-D-phenylalanine} [Example 6]” the “tumor size after three days” value (tumor; 600 μCi/200 μL single injection, initial size 0.3 cc, non-administered model 0.65 cc) was 0.35 cc.
With “cyclic{(tricarbonyl-[^188Re]rhenium-N-α-bis-hydroxycarbonyl methyl-glycine-CONH(CH2CH2O)4CH2CH2CONH-lysine)-alginine-glycine-aspartic acid-D-phenylalanine} [Example 11]” the “tumor growth suppression ability compared to sterilized saline or cyclic RGD groups” value (subcutaneous tumor; 300 μCi once a week for four weeks) was “approximately 50%”, the “tumor size when the treatment for four weeks was ended” value (subcutaneous tumor; 300 μCi tail vein once a week for four weeks, initial tumor size 0.23 cc) was 0.66 cc and the “tumor growth suppression ability compared to low radiation energy treatment group (300 μCi)” value (subcutaneous tumor; [2]) was “approximately 79%”. For the same substance, the “tumor growth suppression ability compared to sterilized saline and cyclic RGD groups” value (subcutaneous tumor; [2]) was “approximately 90%”, the “tumor size at the end of the treatment” value (subcutaneous tumor; 600 μCi once a week for four weeks, 0.3 cc at initial measurement) was 1.4 cc and the “tumor size at 3 week” value (subcutaneous tumor; [3]) was 0.7 cc. For the same substance, the “tumor size at week 2” value (subcutaneous tumor; [3]) was 0.3 cc.
